# Data: ChEMBL document CHEMBL1201862, “PubChem BioAssay data set” (2004)
#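 Results reflect a 48-hour exposure of cells in 96-well plates to compound at five concentrations. GI50: concentration for 50% inhibition of growth.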 Calls of active or inactive are those of the source. No stated cut-off is given here; in the data, active = GI50 up to about 1.1 µM and inactive = higher.
# Experiments:
# Assay in all cases: growth of human tumour cells (NCI), 48 h
# MDA-MB-231 = system: MDA-MB-231
# LOX IMVI = system: LOX IMVI
# MDA-N = system: MDA-N
# HCT-116 = system: HCT-116
# CCRF-CEM = system: CCRF-CEM
# SR = system: SR
# NCI-H460 = system: NCI-H460
# RPMI-8226 = system: RPMI-8226
# MDA-MB-435 = system: MDA-MB-435
# M14 = system: M14
# NCI-H23 = system: NCI-H23
# SF-539 = system: SF-539
# EKVX = system: EKVX
# OVCAR-3 = system: OVCAR-3
# HCT-15 = system: HCT-15
# 786-0 = system: 786-0
# SW-620 = system: SW-620
# HT-29 = system: HT-29
# TK-10 = system: TK-10
# OVCAR-8 = system: OVCAR-8
# SF-295 = system: SF-295
# ACHN = system: ACHN
# CAKI-1 = system: CAKI-1
# SK-MEL-5 = system: SK-MEL-5
# SK-MEL-28 = system: SK-MEL-28
# SF-268 = system: SF-268
# T47D = system: T47D
# PC-3 = system: PC-3
# SNB-75 = system: SNB-75
# Malme-3M = system: Malme-3M
# OVCAR-5 = system: OVCAR-5
# COLO 205 = system: COLO 205
# SNB-19 = system: SNB-19
# HOP-92 = system: HOP-92
# Hs-578T = system: Hs-578T
# HCC 2998 = system: HCC 2998
# SN12C = system: SN12C
# A549 = system: A549
# U-251 = system: U-251
# HL-60 = system: HL-60
# UACC-257 = system: UACC-257
# MOLT-4 = system: MOLT-4
# MCF7 = system: MCF7
# DU-145 = system: DU-145
# A498 = system: A498
# SK-OV-3 = system: SK-OV-3
# KM12 = system: KM12
# HOP-62 = system: HOP-62
# NCI/ADR-RES = system: NCI/ADR-RES
smiles,measurement,setting,value
Cc1oc2c(cc(O)c3ccccc32)c2cccc1-2,GI50,MDA-MB-231,14.3 µM (inactive)
same,GI50,LOX IMVI,> 100 µM (inactive)
same,GI50,MDA-N,> 100 µM (inactive)
same,GI50,HCT-116,> 100 µM (inactive)
same,GI50,CCRF-CEM,> 100 µM (inactive)
same,GI50,SR,> 100 µM (inactive)
same,GI50,NCI-H460,> 100 µM (inactive)
same,GI50,RPMI-8226,> 100 µM (inactive)
same,GI50,MDA-MB-435,> 100 µM (inactive)
same,GI50,M14,24.1 µM (inactive)
same,GI50,NCI-H23,> 100 µM (inactive)
same,GI50,SF-539,> 100 µM (inactive)
same,GI50,EKVX,> 100 µM (inactive)
same,GI50,OVCAR-3,> 100 µM (inactive)
same,GI50,HCT-15,99.5 µM
same,GI50,786-0,> 100 µM (inactive)
same,GI50,SW-620,> 100 µM (inactive)
same,GI50,HT-29,> 100 µM (inactive)
same,GI50,TK-10,> 100 µM (inactive)
same,GI50,OVCAR-8,> 100 µM (inactive)
same,GI50,SF-295,> 100 µM (inactive)
same,GI50,ACHN,> 100 µM (inactive)
same,GI50,CAKI-1,> 100 µM (inactive)
same,GI50,SK-MEL-5,> 100 µM (inactive)
same,GI50,SK-MEL-28,> 100 µM (inactive)
same,GI50,SF-268,> 100 µM (inactive)
same,GI50,T47D,> 100 µM (inactive)
same,GI50,PC-3,> 100 µM (inactive)
same,GI50,SNB-75,> 100 µM (inactive)
same,GI50,Malme-3M,> 100 µM (inactive)
same,GI50,OVCAR-5,> 100 µM (inactive)
same,GI50,COLO 205,> 100 µM (inactive)
same,GI50,SNB-19,> 100 µM (inactive)
same,GI50,HOP-92,> 100 µM (inactive)
same,GI50,Hs-578T,> 100 µM (inactive)
same,GI50,HCC 2998,> 100 µM (inactive)
same,GI50,SN12C,> 100 µM (inactive)
same,GI50,A549,> 100 µM (inactive)
same,GI50,U-251,> 100 µM (inactive)
same,GI50,HL-60,96.6 µM (inactive)
same,GI50,UACC-257,> 100 µM (inactive)
same,GI50,MOLT-4,> 100 µM (inactive)
same,GI50,MCF7,> 100 µM (inactive)
same,GI50,DU-145,36.1 µM (inactive)
same,GI50,A498,> 100 µM (inactive)
same,GI50,SK-OV-3,> 100 µM (inactive)
same,GI50,KM12,> 100 µM (inactive)
same,GI50,HOP-62,> 100 µM (inactive)
same,GI50,NCI/ADR-RES,> 100 µM (inactive)
